# Measurements reported in article PMC6689897, “Drugging an undruggable pocket on KRAS” (Proceedings of the National Academy of Sciences of the …, 2019).
# What was measured:
# GDP-KRASG12D::SOS1 = biological target: T1, GDP-KRASG12D::SOS1 (Homo sapiens, UniProt P01116, G12D); assay: Alpha Screen PPI assay; assay type: biochemical; conditions: for IC50: Alpha Screen, duplicate
# T1 construct: KRAS (G12D) 1-169, N-terminal 6His-tag, C-terminal avi-tag was from Xtal; 6His-tag (N); purchased Xtal BioStructures, Inc
# T1 sequence (P01116 1-169 isoform P01116-2 G12D): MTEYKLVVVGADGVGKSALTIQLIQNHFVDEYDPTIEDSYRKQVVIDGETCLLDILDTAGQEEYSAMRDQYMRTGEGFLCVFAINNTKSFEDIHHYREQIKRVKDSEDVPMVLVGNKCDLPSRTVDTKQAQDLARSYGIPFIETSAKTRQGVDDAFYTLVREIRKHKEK
# Description: 221 Measurements of various protein–protein interactions were performed using the Alpha
# 222 Screen technology developed by Perkin Elmer. Recombinant RAS proteins (H-, N-, K-
# 223 RAS variants; all KRAS variants are based on KRAS isoform 4B (uniprot id P01116-2);
# 224 KRAS (G12D) 1-169, N-terminal 6His-tag, C-terminal avi-tag was from Xtal
# 225 BioStructures, Inc., KRAS (G12C) 1-169, C-terminal avi-tag, biotinylated, mutations:
# 226 C51S, C80L, C118S, NRAS(wt) 1-172, C-terminal avi-tag, biotinylated; HRAS(wt) 1-
# 227 166, C-terminal avi-tag, biotinylated). Biotinylation was performed in vitro with
# 228 recombinant BirA biotin-protein ligase as recommended by the manufacturer (Avidity
# 229 LLC, Aurora, Colorado, USA). Interacting proteins such as SOS1 (564-1049, N-terminal
# 230 GST-tag, TEV cleavage site), cRaf (1-303, N-terminal GST-tag, TEV cleavage site) and
# 231 PI3KA- RBD (160-317, N-term-HIS_GST-tag) were expressed as glutathione S
# 232 transferase (GST) fusions. Accordingly, the Alpha Screen beads were glutathione coated
# 233 Alpha Lisa acceptor beads (Perkin Elmer AL 109 R) and Alpha Screen Streptavidin
# 234 conjugated donor beads (Perkin Elmer 6760002L). Nucleotides were purchased from
# 236 interaction assays were carried out in PBS, containing 0.1% bovine serum albumin,
# 237 0,05% Tween-20 and 10 µM of the corresponding nucleotide. Assays were carried out in
# 238 white ProxiPlate-384 Plus plates (Perkin Elmer #6008280) in a final volume of 20 µL. In
# 239 brief, biotinylated RAS proteins (10 nM final concentration) and GST-SOS1, GST-PI3K
# 240 or GST-CRAF (10 nM final) were mixed with glutathione acceptor beads (5 µg/mL final
# 241 concentration) in buffer, containing the corresponding nucleotides (GDP or GTP for
# 242 assays containing SOS1, only GTP for interaction assays containing PI3K or CRAF) and
# 243 were incubated for 30 min at room temperature. After addition of streptavidin donor
# 244 beads (5 µg/mL final concentration) under green light, the mixture was further incubated
# 245 for 60 min in the dark at room temperature. Single oxygen induced fluorescence was
# 246 measured at an Enspire multimode plate reader (Perkin Elmer) according to the
# 247 manufacturer’s recommendations. […]
# NCI-H358 cells = assay: RAS GTP detection (Ras G-LISA activation assay); assay type: cell-based, human; conditions: for steady-state RAS GTP levels: high growth factor conditions; for formation of GTP-loaded KRAS / RAS GTP levels: starved 24 h low serum, 2 h compound, then EGF
# Description: When we incubated NCI-H358 cells with 50 µM 1 for 1 h, as previously observed, no change in GTP-KRAS was observed. In contrast, 20 µM ARS-1620 caused an 80% reduction of the GTP-bound RAS pool. When the 2 compounds were combined, only a 30% reduction of GTP-RAS was observed, which is in line with inhibiting the binding of GAPs with KRAS (Fig. 6D). […]
# 332 RAS GTP detection (Ras G-LISA Activation assay):
# 333 Ras-GTP levels were analyzed using a Ras G-LISA assay kit (Cytoskeleton Inc.,
# 335 600.000 cells were seeded in 6 wells and grown to 70% confluence. Cells were washed
# 337 provided protease inhibitor cocktail. Lysates were quickly frozen in liquid nitrogen
# 338 and stored at -80°C until further usage. After normalizing protein concentration, 40µg
# 339 of protein was added in duplicates to wells of the Ras G-LISA plate coated with Ras
# 340 GTP-binding protein and incubated at 4°C for 30 minutes while shaking at 400rpm.
# 341 After washing, antigen presenting buffer was added for 2 minutes. To measure bound
# 342 Ras GTP levels, wells were subsequently incubated with an anti-Ras primary antibody
# 343 (1:50) followed by a HRP-labeled secondary antibody (1:500) and finally by adding a
# 344 HRP detection reagent. Absorbance was measured by 490nm using an EnSpire
# 345 Multimode Reader (Perkin Elmer). Background was determined by a negative control
# 346 well and subtracted from all samples. […]
smiles,measurement,setting,value
"C=CC(=O)N1CCN(c2ncnc3c(F)c(-c4c(O)cccc4F)c(Cl)cc23)CC1 [ARS-1620, reference compound]",inhibition of GDP-dependent interaction with G12D instead of G12C,GDP-KRASG12D::SOS1,lost the ability to inhibit
same,IC50,GDP-KRASG12D::SOS1,> 10000 nM
same,reduction of the GTP-bound RAS pool,NCI-H358 cells; 20 µM ARS-1620,80%
same,steady-state RAS GTP levels,NCI-H358 cells,strongly reduced
same,formation of GTP-loaded KRAS / RAS GTP levels,NCI-H358 cells,reduced the RAS GTP levels even below the DMSO control
Cn1cnc(Cn2ccc3ccc(CNCc4[nH]c5ccccc5c4[C@H]4NC(=O)c5ccc(O)cc54)cc32)c1 [Compound 1],inhibition of GDP-dependent interaction with G12D instead of G12C,GDP-KRASG12D::SOS1,maintained the inhibitory function
same,IC50,GDP-KRASG12D::SOS1,260 nM
same,reduction of GTP-RAS,NCI-H358 cells; 50 µM 1 combined with 20 µM ARS-1620,30%
same,change in GTP-KRAS,NCI-H358 cells; 50 µM 1 for 1 h,no change
same,steady-state RAS GTP levels,NCI-H358 cells,does not change
same,formation of GTP-loaded KRAS / RAS GTP levels,NCI-H358 cells,dose-dependent inhibition
